Values after ≈ are worked out from the molar mass of the structure shown. Like-named read-outs stand apart in the source and are kept apart here. Each block holds one compound with its values, some of them ahead of it.
Tests used:
[1] = tested on: M. mycetomatis genome strain MM55; experiment: CLSI M38-A2 based in vitro susceptibility screening (XTT or resazurin), growth at fixed concentration; assay type: cell-based, Madurella mycetomatis; conditions: Madurella mycetomatis; for Percent fungal survival at 100 µM: replicate 2, M. mycetomatis MM55, read-out: Percentage survival at 100um, 100 uM A (second replicate column)
M. mycetomatis MM55 = experiment: IC50 determination, 2-fold dilution series 16 to 0.03125 μM; assay type: cell-based, Madurella mycetomatis; conditions: for IC90 / IC50: Madurella mycetomatis
[2] = tested on: ten different M. mycetomatis isolates; experiment: MIC / MIC50 determination (XTT) in ten M. mycetomatis isolates; assay type: cell-based, Madurella mycetomatis; conditions: Madurella mycetomatis
[3] = tested on: M. mycetomatis isolate MM55; experiment: M. mycetomatis grain infection model in G. mellonella larvae, survival; assay type: in vivo, Galleria mellonella; parameters: In vivo efficacy, Larvae survival %: concentration or dose not given beside the values; conditions: G. mellonella larvae infected with M. mycetomatis
[4] = 25 uM, mean of three, M. mycetomatis MM55, read-out: Percentage survival at 25um, 25 uM mean
[5] = 25 uM, replicate A, M. mycetomatis MM55, read-out: Percentage survival at 25um, 25 um A
[6] = 25 uM, replicate B, M. mycetomatis MM55, read-out: Percentage survival at 25um, 25 uM B
[7] = 25 uM, replicate C, M. mycetomatis MM55, read-out: Percentage survival at 25um, 25 uM C
[8] = mean of three, M. mycetomatis MM55, read-out: Percentage survival at 100um, 100 uM mean
[9] = replicate 1, M. mycetomatis MM55, read-out: Percentage survival at 100um, 100 uM A (first replicate column)
[10] = replicate 3, M. mycetomatis MM55, read-out: Percentage survival at 100um, 100 uM A (third replicate column)
[11] = MM55, mean of replicates, read-out: IC90 mean
[12] = MM55, replicate 1, read-out: IC90 1 um
[13] = MM55, replicate 2, read-out: IC90 2 um
[14] = MM55, replicate 3, read-out: IC90 3 um
[15] = over the tested M. mycetomatis isolates, read-out: MIC50 mean
[16] = isolate CBS247.48, read-out: MIC CBS247.48
[17] = isolate MM55, read-out: MIC MM55
[18] = isolate ParijsAl1, read-out: MIC ParijsAl1
[19] = isolate Peru72012, read-out: MIC Peru72012
[20] = MM55, mean of replicates, read-out: IC50 mean
[21] = MM55, replicate 1, read-out: IC50 1 um
[22] = MM55, replicate 2, read-out: IC50 2 um
[23] = MM55, replicate 3, read-out: IC50 3 um
[24] = median MIC over ten M. mycetomatis isolates, no asterisk, read-out: MIC50

IC90 (M. mycetomatis MM55; [11]): 1.23 µM
IC90 (M. mycetomatis MM55; [12]): 0.75 µM
IC90 (M. mycetomatis MM55; [13]): 2.6 µM
IC90 (M. mycetomatis MM55; [14]): 0.34 µM
MIC50 [2, 15]: 0.125 µM (≈ 0.052 µg/mL)
MIC [2, 16]: 0.125 µM (≈ 0.052 µg/mL)
MIC [2, 17]: 0.25 µM (≈ 0.104 µg/mL)
MIC ([2]; isolate P1, read-out: MIC P1): 0.06 µM (≈ 0.025 µg/mL)
MIC [2, 18]: > 0.03 µM
MIC [2, 19]: 0.06 µM (≈ 0.025 µg/mL)
MIC ([2]; isolate So1, read-out: MIC So1): 0.125 µM (≈ 0.052 µg/mL)
MIC ([2]; isolate i1, read-out: MIC i1): > 0.03 µM
MIC ([2]; isolate i11, read-out: MIC i11): 0.5 µM (≈ 0.208 µg/mL)
SMILES: Clc1ccc(COC(Cn2ccnc2)c2ccc(Cl)cc2Cl)c(Cl)c1 (centres unmarked) [MMV002722]
activity at 25 µM [1, 4]: 1.83%
activity at 25 µM [1, 5]: 0.653%
activity at 25 µM [1, 6]: 1.37%
activity at 25 µM [1, 7]: 3.48%
activity at 100 µM [1, 8]: 8.62%
activity at 100 µM [1, 9]: 1.56%
Percent fungal survival at 100 µM [1]: 6.95%
activity at 100 µM [1, 10]: 17.4%
Drug static or cidal (M. mycetomatis MM55; M. mycetomatis): Cidal
In vivo efficacy, Enhanced survival compared to control? [3]: no
In vivo efficacy, Larvae survival % [3]: 8.9%

IC50 (M. mycetomatis MM55; MM55, Table 2, M. mycetomatis MM55, read-out: IC50): 2.56 µM
IC50 (M. mycetomatis MM55; [20]): 2.56 µM
IC90 (M. mycetomatis MM55; [11]): 4.26 µM
IC50 (M. mycetomatis MM55; [21]): 2.16 µM
IC90 (M. mycetomatis MM55; [12]): 3.95 µM
IC50 (M. mycetomatis MM55; [22]): 2.7 µM
IC90 (M. mycetomatis MM55; [13]): 4.4 µM
IC50 (M. mycetomatis MM55; [23]): 2.83 µM
IC90 (M. mycetomatis MM55; [14]): 4.42 µM
MIC50 [2, 24]: 2 µM (≈ 1.02 µg/mL)
MIC50 [2, 15]: 2 µM (≈ 1.02 µg/mL)
MIC [2, 16]: 1 µM (≈ 0.509 µg/mL)
MIC ([2]; isolate MM14, read-out: MIC MM14): 2 µM (≈ 1.02 µg/mL)
MIC ([2]; isolate MM45, read-out: MIC MM45): 2 µM (≈ 1.02 µg/mL)
MIC [2, 17]: 2 µM (≈ 1.02 µg/mL)
MIC ([2]; isolate P1, read-out: MIC P1): 2 µM (≈ 1.02 µg/mL)
MIC [2, 18]: 4 µM (≈ 2.04 µg/mL)
MIC [2, 19]: 4 µM (≈ 2.04 µg/mL)
MIC ([2]; isolate So1, read-out: MIC So1): 2 µM (≈ 1.02 µg/mL)
MIC ([2]; isolate i1, read-out: MIC i1): 2 µM (≈ 1.02 µg/mL)
MIC ([2]; isolate i11, read-out: MIC i11): 2 µM (≈ 1.02 µg/mL)
SMILES: CCCCC(CC)CNC(=N)NC(=N)NCCCCCCNC(=N)NC(=N)NCC(CC)CCCC (centres unmarked) [MMV396785, Alexidine, reference compound]
activity at 25 µM [1, 4]: 1.02%
activity at 25 µM [1, 5]: -0.617%
activity at 25 µM [1, 6]: 1.64%
activity at 25 µM [1, 7]: 2.05%
activity at 100 µM [1, 8]: 7.33%
activity at 100 µM [1, 9]: -1.99%
Percent fungal survival at 100 µM [1]: 7.87%
activity at 100 µM [1, 10]: 16.1%
Drug static or cidal (M. mycetomatis MM55; M. mycetomatis): Static
In vivo efficacy, Enhanced survival compared to control? [3]: no
In vivo efficacy, Larvae survival % [3]: 2.2%

SMILES: Nc1nc(F)nc2c1ncn2[C@@H]1O[C@H](CO)[C@@H](O)[C@@H]1O [MMV637413, Fludarabine, reference compound]
activity at 25 µM ([1]; 25 uM, replicate A, MM55, read-out: Percentage survival at 25um, 25 um A): 3.41%
activity at 100 µM ([1]; mean of replicates, MM55, read-out: Percentage survival at 100um, 100 uM mean): 3.82%
activity at 100 µM ([1]; replicate 1, MM55, read-out: Percentage survival at 100um, 100 uM A): 1.86%
activity at 100 µM ([1]; replicate 2, MM55, read-out: Percentage survival at 100um, 100 uM A): 1.98%
activity at 100 µM ([1]; replicate 3, MM55, read-out: Percentage survival at 100um, 100 uM A): 7.64%
activity at 25 µM ([1]; read-out: Percentage survival at 25um, 25 uM B): -4.01%
activity at 25 µM ([1]; read-out: Percentage survival at 25um, 25 uM C): 6.32%
activity at 25 µM ([1]; read-out: Percentage survival at 25um, 25 uM mean): 1.91%
Drug static or cidal (M. mycetomatis MM55): Static
IC50 (M. mycetomatis MM55; [20]): 1.63 µM
IC90 (M. mycetomatis MM55; MM55, IC90, mean of replicates, read-out: IC90 mean): 8.89 µM
IC90 (M. mycetomatis MM55; MM55, IC90, replicate 1, read-out: IC90 1 um): 20.6 µM
IC90 (M. mycetomatis MM55; MM55, IC90, replicate 2, read-out: IC90 2 um): 1.28 µM
IC90 (M. mycetomatis MM55; MM55, IC90, replicate 3, read-out: IC90 3 um): 4.8 µM
IC50 (M. mycetomatis MM55; [21]): 1.8 µM
IC50 (M. mycetomatis MM55; [22]): 0.68 µM
IC50 (M. mycetomatis MM55; [23]): 2.4 µM
IC50 (M. mycetomatis MM55; Table 2, M. mycetomatis MM55, read-out: IC50): 1.63 µM
MIC50 [2, 24]: 16 µM (≈ 4.56 µg/mL)
MIC ([2]; M. mycetomatis isolate CBS247.48, read-out: MIC CBS247.48): 16 µM (≈ 4.56 µg/mL)
MIC ([2]; M. mycetomatis isolate MM14, read-out: MIC MM14): 16 µM (≈ 4.56 µg/mL)
MIC ([2]; M. mycetomatis isolate MM45, read-out: MIC MM45): > 16 µM
MIC ([2]; M. mycetomatis isolate MM55, read-out: MIC MM55): 16 µM (≈ 4.56 µg/mL)
MIC ([2]; M. mycetomatis isolate P1, read-out: MIC P1): > 16 µM
MIC ([2]; M. mycetomatis isolate ParijsAl1, read-out: MIC ParijsAl1): > 16 µM
MIC ([2]; M. mycetomatis isolate Peru72012, read-out: MIC Peru72012): > 16 µM
MIC ([2]; M. mycetomatis isolate So1, read-out: MIC So1): 16 µM (≈ 4.56 µg/mL)
MIC ([2]; M. mycetomatis isolate i1, read-out: MIC i1): > 16 µM
MIC ([2]; M. mycetomatis isolate i11, read-out: MIC i11): 16 µM (≈ 4.56 µg/mL)
MIC50 ([2]; over ten M. mycetomatis isolates, read-out: MIC50 mean): 16 µM (≈ 4.56 µg/mL)

Source: article PMC8815882, “Screening the pandemic response box identified benzimidazole carbamates, Olorofim and ravuconazole as promising drug candidates for the treatment of eumycetoma” (PLoS Neglected Tropical Diseases, 2022)
